{"source": "ChEMBL document CHEMBL5634101", "about": "“Discovery of NLRP3 inhibitors using machine learning: Identification of a hit compound to treat NLRP3 activation-driven diseases” (Eur J Med Chem, 2023)", "key": {"[1]": {"system": "Mus musculus", "assay": "Anti-inflammatory activity in MSU-induced C57 mouse model of gouty arthritis assessed as reduction in foot swelling at 10 to 30 mg/kg, ip preadministered with compound for 3 days followed by MSU injection and measured after 24 hrs", "type": "functional, organism-based", "settings": "dose 10-30 mg/kg, time 4.0 day"}, "[2]": {"molecular_target": "NACHT, LRR and PYD domains-containing protein 3 (Mus musculus) (UniProt Q8R4B8)", "sequence (Q8R4B8 whole entry, the tested form may be a part)": "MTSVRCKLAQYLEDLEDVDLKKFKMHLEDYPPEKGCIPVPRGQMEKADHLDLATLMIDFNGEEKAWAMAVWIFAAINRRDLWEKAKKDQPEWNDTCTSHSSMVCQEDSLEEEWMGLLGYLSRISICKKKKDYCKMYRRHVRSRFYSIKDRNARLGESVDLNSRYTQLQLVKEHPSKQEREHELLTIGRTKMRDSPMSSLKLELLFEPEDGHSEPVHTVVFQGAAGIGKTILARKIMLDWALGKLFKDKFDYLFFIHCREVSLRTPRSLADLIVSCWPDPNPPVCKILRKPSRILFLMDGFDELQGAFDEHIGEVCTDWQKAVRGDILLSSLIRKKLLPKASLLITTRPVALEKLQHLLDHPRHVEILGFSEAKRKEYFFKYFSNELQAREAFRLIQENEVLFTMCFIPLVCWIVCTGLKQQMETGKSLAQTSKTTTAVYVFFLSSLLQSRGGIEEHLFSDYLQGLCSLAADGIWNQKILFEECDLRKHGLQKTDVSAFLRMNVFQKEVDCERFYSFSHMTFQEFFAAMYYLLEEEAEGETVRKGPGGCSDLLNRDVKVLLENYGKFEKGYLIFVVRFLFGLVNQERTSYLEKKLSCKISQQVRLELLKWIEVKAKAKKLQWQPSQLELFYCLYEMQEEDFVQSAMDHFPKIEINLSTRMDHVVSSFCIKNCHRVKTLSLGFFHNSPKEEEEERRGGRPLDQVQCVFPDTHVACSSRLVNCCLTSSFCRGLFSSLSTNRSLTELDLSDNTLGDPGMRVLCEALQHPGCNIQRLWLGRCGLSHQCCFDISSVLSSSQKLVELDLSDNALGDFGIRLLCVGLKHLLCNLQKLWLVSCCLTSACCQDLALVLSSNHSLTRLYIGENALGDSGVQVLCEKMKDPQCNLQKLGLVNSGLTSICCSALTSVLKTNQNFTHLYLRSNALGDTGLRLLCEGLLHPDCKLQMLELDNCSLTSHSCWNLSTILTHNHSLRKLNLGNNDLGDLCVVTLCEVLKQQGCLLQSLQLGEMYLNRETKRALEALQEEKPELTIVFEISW", "assay": "(§1) Inhibition of NLRP3 inflammasome activation in LPS/Nigericin induced C57 mouse BMDM cells assessed as reduction in active caspase-1 in cell supernatant at 2.5 to 10 uM preincubated with LPS for 3 hrs followed by compound addition for 30 mins prior to nigericin addition and measured after 30 mins by Western blot analysis", "type": "cell-based", "settings": "dose 2.5-10 µM, time 1.0 hrs"}, "[3]": {"system": "Mus musculus", "assay": "Anti-inflammatory activity in MSU-induced C57 mouse model of acute peritonitis assessed as reduction in IL-1beta expression preadministered intraperitoneally with compound for 3 days followed by MSU injection and measured after 6 hrs by ELISA", "type": "functional, organism-based", "settings": "dose 5-30 mg/kg, route ip, time 78.0 hrs"}, "[4]": {"molecular_target": "T1, Interferon-inducible protein AIM2 (Mus musculus) (UniProt Q91VJ1)", "T1 sequence (whole entry)": "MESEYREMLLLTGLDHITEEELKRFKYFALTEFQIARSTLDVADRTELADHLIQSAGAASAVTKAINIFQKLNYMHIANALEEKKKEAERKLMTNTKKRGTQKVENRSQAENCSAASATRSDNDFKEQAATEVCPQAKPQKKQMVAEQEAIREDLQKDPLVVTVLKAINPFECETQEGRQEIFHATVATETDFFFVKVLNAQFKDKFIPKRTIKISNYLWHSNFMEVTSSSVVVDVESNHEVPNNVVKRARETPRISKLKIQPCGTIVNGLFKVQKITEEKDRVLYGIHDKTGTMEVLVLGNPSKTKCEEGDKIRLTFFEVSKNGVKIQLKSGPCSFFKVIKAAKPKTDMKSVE", "assay": "Inhibition of AIM2 inflammasome activation in C57 mouse BMDM cells assessed as reduction in caspase-1 maturation at 5 uM preincubated with LPS for 3 hrs followed by poly(dA:dT) stimulation for 4 hrs by Western blot analysis", "type": "cell-based"}, "[5]": {"system": "THP-1", "assay": "Cytotoxicity against PMA-differentiated human THP-1 cells assessed as reduction in cell viability upto 50 uM incubated for 24 hrs by CCK8 assay", "type": "toxicity, cell-based", "settings": "thp-1, 24 h"}, "[6]": {"molecular_target": "NACHT, LRR and PYD domains-containing protein 3 (Mus musculus) (UniProt Q8R4B8)", "assay": "Inhibition of NLRP3 inflammasome activation in C57 mouse BMDM cells assessed as reduction in caspase-1 maturation at 5 uM preincubated with LPS for 3 hrs followed by compound addition for 30 mins prior to ATP addition and measured after 30 mins by Western blot analysis", "type": "cell-based", "settings": "time 1.0 hrs"}, "[7]": {"molecular_target": "T2, NACHT, LRR and PYD domains-containing protein 3 (Homo sapiens, UniProt Q96P20)", "T2 sequence (Q96P20 whole entry, the tested form may be a part)": "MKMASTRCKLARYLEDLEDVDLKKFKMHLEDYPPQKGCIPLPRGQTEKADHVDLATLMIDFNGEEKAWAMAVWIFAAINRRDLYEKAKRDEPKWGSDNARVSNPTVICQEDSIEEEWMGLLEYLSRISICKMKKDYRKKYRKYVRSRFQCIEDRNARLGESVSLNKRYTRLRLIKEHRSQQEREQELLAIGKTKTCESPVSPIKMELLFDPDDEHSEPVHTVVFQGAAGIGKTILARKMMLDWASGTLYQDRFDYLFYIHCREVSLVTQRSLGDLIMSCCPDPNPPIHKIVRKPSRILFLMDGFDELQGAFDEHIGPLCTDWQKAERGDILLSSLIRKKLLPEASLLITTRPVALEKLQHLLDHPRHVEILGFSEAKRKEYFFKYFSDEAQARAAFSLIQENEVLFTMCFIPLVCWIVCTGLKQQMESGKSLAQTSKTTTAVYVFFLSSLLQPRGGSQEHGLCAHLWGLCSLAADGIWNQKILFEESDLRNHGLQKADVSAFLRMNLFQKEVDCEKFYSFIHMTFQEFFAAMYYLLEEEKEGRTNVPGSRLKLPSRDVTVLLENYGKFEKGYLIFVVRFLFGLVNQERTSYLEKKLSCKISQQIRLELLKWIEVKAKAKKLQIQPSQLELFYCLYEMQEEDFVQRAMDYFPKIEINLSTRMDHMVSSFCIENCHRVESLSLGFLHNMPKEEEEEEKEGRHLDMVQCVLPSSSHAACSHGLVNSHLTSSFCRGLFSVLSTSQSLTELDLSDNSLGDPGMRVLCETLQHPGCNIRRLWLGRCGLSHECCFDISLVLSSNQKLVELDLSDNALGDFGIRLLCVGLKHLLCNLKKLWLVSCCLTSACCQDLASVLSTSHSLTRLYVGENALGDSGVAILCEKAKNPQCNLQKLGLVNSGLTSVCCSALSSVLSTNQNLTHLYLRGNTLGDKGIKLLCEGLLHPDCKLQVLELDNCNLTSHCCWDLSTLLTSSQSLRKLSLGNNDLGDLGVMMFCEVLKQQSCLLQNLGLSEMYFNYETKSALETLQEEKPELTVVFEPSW", "assay": "Inhibition of NLRP3 inflammasome activation in […]-differentiated human THP-1 cells assessed as effect on chloride efflux at 2.5 to 10 uM preincubated with LPS for 3 hrs followed by compound addition for 30 mins prior to nigericin addition and measured after 30 mins by fluorescence based analysis", "type": "cell-based", "settings": "dose 2.5-10 µM, time 1.0 hrs"}, "[8]": {"assay": "Stability in human liver microsomes assessed as intrinsic clearance at 1.5 uM measured upto 45 mins in presence of NADPH by LC-MS/MS analysis", "type": "ADME, Microsome", "settings": "read-out: CLH"}, "[9]": {"system": "Mus musculus", "assay": "Anti-inflammatory activity in LPS-induced C57 sepsis mouse model assessed as reduction in serum IL-1beta level at 10 to 30 mg/kg, ip preadministered with compound for 30 mins followed by LPS stimulation and measured after 6 hrs by ELISA", "type": "functional, organism-based", "settings": "dose 10-30 mg/kg, time 6.5 hrs"}, "[10]": {"molecular_target": "NACHT, LRR and PYD domains-containing protein 3 (Mus musculus) (UniProt Q8R4B8)", "assay": "Inhibition of NLRP3 inflammasome activation in C57 mouse BMDM cells assessed as reduction in IL-1beta secretion at 5 uM preincubated with LPS for 3 hrs followed by compound addition for 30 mins prior to MSU addition and measured after 4 hrs by Western blot analysis", "type": "cell-based", "settings": "time 4.5 hrs"}, "[11]": {"molecular_target": "NLR family CARD domain-containing protein 4 (Mus musculus) (UniProt Q3UP24)", "sequence (Q3UP24 whole entry, the tested form may be a part)": "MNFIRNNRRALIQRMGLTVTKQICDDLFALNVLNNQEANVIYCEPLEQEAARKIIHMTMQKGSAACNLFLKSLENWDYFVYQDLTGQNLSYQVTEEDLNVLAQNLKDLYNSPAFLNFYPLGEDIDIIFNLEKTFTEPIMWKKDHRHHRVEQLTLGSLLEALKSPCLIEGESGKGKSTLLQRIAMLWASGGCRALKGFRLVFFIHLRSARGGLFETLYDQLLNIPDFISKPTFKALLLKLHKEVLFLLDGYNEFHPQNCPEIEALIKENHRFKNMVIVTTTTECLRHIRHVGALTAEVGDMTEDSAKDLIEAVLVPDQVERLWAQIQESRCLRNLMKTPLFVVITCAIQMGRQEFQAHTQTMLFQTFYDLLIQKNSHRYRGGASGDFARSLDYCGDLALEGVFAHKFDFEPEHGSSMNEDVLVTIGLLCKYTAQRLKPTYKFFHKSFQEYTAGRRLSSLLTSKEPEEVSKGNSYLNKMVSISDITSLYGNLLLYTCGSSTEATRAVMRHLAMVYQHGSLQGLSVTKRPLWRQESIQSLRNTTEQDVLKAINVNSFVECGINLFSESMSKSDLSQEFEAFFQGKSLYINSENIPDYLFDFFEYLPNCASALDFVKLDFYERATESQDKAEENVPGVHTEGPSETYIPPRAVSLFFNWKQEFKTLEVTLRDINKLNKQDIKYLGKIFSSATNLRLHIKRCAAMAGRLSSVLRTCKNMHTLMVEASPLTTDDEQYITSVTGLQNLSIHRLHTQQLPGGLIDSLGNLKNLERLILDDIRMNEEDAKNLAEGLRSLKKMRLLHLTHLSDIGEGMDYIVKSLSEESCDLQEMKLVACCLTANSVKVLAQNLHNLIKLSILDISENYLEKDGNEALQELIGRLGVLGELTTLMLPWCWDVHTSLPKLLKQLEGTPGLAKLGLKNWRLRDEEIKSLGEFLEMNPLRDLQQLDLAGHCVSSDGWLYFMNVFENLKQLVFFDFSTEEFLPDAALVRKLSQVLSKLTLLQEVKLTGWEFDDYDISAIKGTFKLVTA", "assay": "Inhibition of NLRC4 inflammasome activation in C57 mouse BMDM cells assessed as reduction in caspase-1 maturation at 5 uM preincubated with LPS for 3 hrs followed by Salmonella typhimurium stimulation for 2 hrs by Western blot analysis", "type": "cell-based"}, "[12]": {"molecular_target": "NACHT, LRR and PYD domains-containing protein 3 (Mus musculus) (UniProt Q8R4B8)", "assay": "as §1, with “NEK7 expression” for “active caspase-1”", "type": "cell-based", "settings": "dose 2.5-10 µM, time 1.0 hrs"}, "[13]": {"molecular_target": "NACHT, LRR and PYD domains-containing protein 3 (Mus musculus) (UniProt Q8R4B8)", "assay": "Inhibition of NLRP3 inflammasome assembly in C57 mouse BMDM cells assessed as effect on NEK7 binding at 2.5 to 10 uM preincubated with LPS for 3 hrs followed by compound addition for 30 mins prior to nigericin addition and measured after 30 mins by immunoprecipitation", "type": "cell-based", "settings": "dose 2.5-10 µM, time 1.0 hrs"}, "[14]": {"system": "BMDM", "assay": "Effect on TNF-alpha secretion in LPS/Nigericin induced C57 mouse BMDM cells at 1.25 to 10 uM preincubated with LPS for 3 hrs followed by compound addition for 30 mins prior to nigericin addition and measured after 30 mins by ELISA", "type": "functional, cell-based", "settings": "dose 1.25-10 µM, time 1.0 hrs"}, "[15]": {"molecular_target": "NACHT, LRR and PYD domains-containing protein 3 (Mus musculus) (UniProt Q8R4B8)", "assay": "Inhibition of NLRP3 inflammasome assembly in C57 mouse BMDM cells assessed as reduction in ASC monomer at 2.5 to 10 uM preincubated with LPS for 3 hrs followed by compound addition for 30 mins prior to nigericin addition and measured after 30 mins by blotting analysis", "type": "cell-based", "settings": "dose 2.5-10 µM, time 1.0 hrs"}, "[16]": {"molecular_target": "NACHT, LRR and PYD domains-containing protein 3 (Mus musculus) (UniProt Q8R4B8)", "assay": "Inhibition of NLRP3 inflammasome activation in C57 mouse BMDM cells assessed as reduction in caspase-1 activation at 5 uM preincubated with LPS for 3 hrs followed by compound addition for 30 mins prior to nigericin addition and measured after 30 mins by Western blot analysis", "type": "cell-based", "settings": "time 1.0 hrs"}, "[17]": {"molecular_target": "T1, Interferon-inducible protein AIM2 (Mus musculus)", "assay": "Inhibition of AIM2 inflammasome activation in C57 mouse BMDM cells assessed as reduction in IL-1beta secretion at 5 uM preincubated with LPS for 3 hrs followed by poly(dA:dT) stimulation for 4 hrs by Western blot analysis", "type": "cell-based"}, "[18]": {"system": "L02", "assay": "Cytotoxicity against human L02 cells assessed as reduction in cell viability upto 50 uM incubated for 24 hrs by CCK8 assay", "type": "toxicity, cell-based", "settings": "l02, 24 h"}, "[19]": {"molecular_target": "T2, NACHT, LRR and PYD domains-containing protein 3", "assay": "Inhibition of NLRP3 inflammasome activation in PMA-differentiated human THP-1 cells assessed as reduction in IL-1beta secretion pre-stimulated with PMA for 24 hrs followed by compound addition and measured after 30 mins by ELISA", "type": "cell-based"}, "[20]": {"system": "BMDM", "assay": "Cytotoxicity against C57 mouse BMDM cells assessed as reduction in cell viability upto 50 uM incubated for 24 hrs by CCK8 assay", "type": "toxicity, cell-based"}}, "note": "Active and inactive are the calls of the source. The rule behind the calls is not given here.", "data": [{"smiles": "COc1ccc(N2C(=O)/C(=C\\c3ccccc3C(F)(F)F)SC2=S)cc1", "values": [{"measurement": "Activity", "setting": "[1]", "result": "Active"}, {"measurement": "inhibition", "setting": "[2]", "result": "Active"}, {"measurement": "Activity", "setting": "[3]", "result": "Dose-Dependent Effect"}, {"measurement": "inhibition", "setting": "[4]", "result": "inactive"}, {"measurement": "Activity", "setting": "[5]", "result": "Non-Toxic"}, {"measurement": "inhibition", "setting": "[6]", "result": "Active"}, {"measurement": "inhibition", "setting": "[7]", "result": "inactive"}, {"measurement": "CLint scaled at 1.5 µM", "setting": "[8]", "result": 11.2, "unit": "mL/min/kg"}, {"measurement": "Activity", "setting": "[9]", "result": "Active"}, {"measurement": "inhibition", "setting": "[10]", "result": "Active"}, {"measurement": "inhibition", "setting": "[11]", "result": "inactive"}, {"measurement": "inhibition", "setting": "[12]", "result": "inactive"}, {"measurement": "inhibition", "setting": "[13]", "result": "Active"}, {"measurement": "Activity", "setting": "[14]", "result": "inactive"}, {"measurement": "inhibition", "setting": "[15]", "result": "Active"}, {"measurement": "inhibition", "setting": "[16]", "result": "Active"}, {"measurement": "inhibition", "setting": "[17]", "result": "inactive"}, {"measurement": "Activity", "setting": "[18]", "result": "Non-Toxic"}, {"measurement": "IC50", "setting": "[19]", "result": 2.3, "unit": "µM"}, {"measurement": "Activity", "setting": "[20]", "result": "Non-Toxic"}]}]}
